Laboratory results published in PubChem BioAssay (NCI).
Values joined by “and” are separate entries in the source; they are usually repeats but may differ in a detail not shown here. Equal values may be shown once.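 Cultured in 96-well plates, cells were exposed to test compound for 48 hours across five concentrations. Here, GI50 denotes the concentration required for 50% inhibition of growth. The concentration for full growth arrest is given as TGI.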

Tests used:
Assay in all cases: DTP human tumour cell line panel, 48 h
U251 CNS = system: U251 CNS
SK-MEL-28 melanoma = system: SK-MEL-28 melanoma
ACHN renal = system: ACHN renal
SK-OV-3 ovarian = system: SK-OV-3 ovarian
MDA-MB-435 = system: MDA-MB-435
CAKI-1 renal = system: CAKI-1 renal
LOX IMVI melanoma = system: LOX IMVI melanoma
SF-295 CNS = system: SF-295 CNS
MCF7 breast = system: MCF7 breast
KM20L2 colon = system: KM20L2 colon

| Structure (SMILES) | TGI (U251 CNS) | GI50 (SK-MEL-28 melanoma) | TGI (SK-MEL-28 melanoma) | TGI (ACHN renal) | TGI (SK-OV-3 ovarian) | GI50 (MDA-MB-435) | TGI (MDA-MB-435) | TGI (CAKI-1 renal) | TGI (LOX IMVI melanoma) | GI50 (SF-295 CNS) | TGI (SF-295 CNS) | TGI (MCF7 breast) | TGI (KM20L2 colon) | GI50 (U251 CNS) | GI50 (CAKI-1 renal) | GI50 (LOX IMVI melanoma) | GI50 (MCF7 breast) [nM] | GI50 (KM20L2 colon) | GI50 (ACHN renal) [nM] |
| --- | --- | --- | --- | --- | --- | --- | --- | --- | --- | --- | --- | --- | --- | --- | --- | --- | --- | --- | --- |
| O=C1NC(N/N=C\C(O)C(O)C(O)CO)=N/C1=C/c1ccccc1 (stereo not given) | > 100 µM | > 100 µM and 25.6 µM | > 100 µM | > 100 µM | > 100 µM | > 100 µM and 49.6 µM | > 100 µM | > 100 µM | > 100 µM | > 100 µM and 38.2 µM | > 100 µM | > 100 µM | – | – | – | – | – | – | – |
| C=CCNC(=S)Nc1sc2c(c1C(=O)OCC)CC(C)CC2 (stereo not given) | > 100 µM | – | > 100 µM | 53.6 µM | 69.4 µM | – | > 100 µM | > 100 µM | > 100 µM | – | 59.5 µM | 45.4 µM | – | – | – | – | – | – | – |
| C1=C\SS/C=C\SS/C=C\SS/C=C\SS/1 | > 100 µM | – | > 100 µM | > 100 µM | > 100 µM | – | > 100 µM | > 100 µM | > 100 µM | – | > 100 µM | > 100 µM | – | – | – | – | – | – | – |
| CCOC(=O)c1cccc(NC(=O)CCl)c1 | 2.95 µM | – | 49.7 µM | 9.19 µM | 15.3 µM | – | 7.41 µM | 3.42 µM | 3.89 µM | – | 26.1 µM | 6.81 µM | – | – | – | – | – | – | – |
| Cc1ccc(S(=O)(=O)N/N=C/c2oc(-c3cccc([N+](=O)[O-])c3)c(-c3cccc([N+](=O)[O-])c3)c2[N+](=O)[O-])cc1 | > 100 µM | – | > 100 µM | > 100 µM | 68.5 µM | – | – | > 100 µM | 33.5 µM | – | > 100 µM | – | > 100000 nM | – | – | – | – | – | – |
| CC[n+]1cnc(N)c2c(-c3ccc(Cl)cc3)cn(-c3ccc(C)cc3)c21 | 24.3 µM | – | 21.2 µM | 25.6 µM | 29 µM | – | 23.7 µM | 30.6 µM | 25.9 µM | – | 25.3 µM | 3.35 µM | – | – | – | – | – | – | – |
| c1ccc(CNC2CC(NCc3ccccn3)CC(NCc3ccccn3)C2)nc1 (stereo not given) | 3.88 µM and 9.35 µM and 3.36 µM | 7.71 µM | 18.5 µM and 13.3 µM and 26.4 µM | 47.3 µM and 25 µM and 35.7 µM | 7.86 µM and 8.7 µM and 7.17 µM | 3.84 µM | 9.45 µM and 8.78 µM and 15.5 µM | 28 µM and 25 µM and 17.2 µM | 6.95 µM and 14.5 µM and 7.77 µM | 5.03 µM | 18.9 µM and 20.9 µM and 36.5 µM | 6.31 µM and 8.62 µM and 3.65 µM | – | 1950 nM and 4900 nM and 1880 nM | 4.6 µM and 16.3 µM and 4.35 µM | 2620 nM and 5400 nM and 2830 nM | 1890 | – | – |
| CN1C/C(=C\c2cccs2)C2=NC(=S)NC(c3cccs3)C2C1 (stereo not given) | > 100 µM | – | > 100 µM | > 100 µM | > 100 µM | – | > 100 µM | > 100 µM | > 100 µM | – | > 100 µM | > 100 µM | – | – | – | – | – | – | – |
| O=C(O)c1ccccc1.[Ag] | 35.4 µM | – | 32.4 µM | 19.1 µM | 31.2 µM | – | 31.7 µM | 9.89 µM | > 66.6 µM | – | > 100 µM | 36.5 µM | – | – | – | – | – | – | – |
| Cc1nc2c(=S)[nH]ncc2[nH]1 | > 100 µM | – | > 100 µM | > 100 µM | > 100 µM | – | > 100 µM | > 100 µM | > 100 µM | – | > 100 µM | > 100 µM | – | – | – | – | – | – | – |
| O=C(Nc1cccc2ccccc12)Oc1ccccc1C1CCCCC1 | 26.7 µM | – | 38.1 µM | – | 67.7 µM | – | – | – | 31.1 µM | – | 31.3 µM | – | 47500 nM | – | – | – | – | – | – |
| Nc1nc(N)c2ncn(CC3CCC(CO)C3)c2n1 (stereo not given) | > 100 µM | – | > 100 µM | > 100 µM | > 100 µM | – | > 100 µM | > 100 µM | > 100 µM | – | > 100 µM | > 100 µM | – | – | – | – | – | – | – |
| CCC(C)[C@H](NC(=O)[C@H](Cc1ccccc1)NC(=O)N(CC)c1ccccc1)C(=O)N[C@@H](CC(C)C)C(=O)OC (stereo not given in full) | > 100 µM | – | > 100 µM | 72.7 µM | > 100 µM | – | > 100 µM | > 100 µM | > 100 µM | – | > 100 µM | > 100 µM | – | – | – | – | – | – | – |
| CCC1(O)CC(OC2CC(N(C)C)C(OC3CC4OC5CC(=O)C(C)OC5OC4C(C)O3)C(C)O2)c2c(cc3c(c2O)C(=O)c2c(O)ccc(O)c2C3=O)C1C(=O)OC (stereo not given) | – | – | – | – | – | – | – | – | – | – | – | – | 356 nM and 46.2 nM and 88.9 nM | 4.86 nM and 7.85 nM and < 12.1 nM | 0.00251 µM and 0.00763 µM | 9.15 nM | – | 3.51 nM and 7.5 nM | 0.823 |
| Cc1ccc(S(=O)(=O)c2scc(-c3ccccc3)c2C)cc1 | > 100 µM | – | > 100 µM | > 100 µM | > 100 µM | – | > 100 µM | > 100 µM | > 100 µM | – | > 100 µM | > 100 µM | – | – | – | – | – | – | – |
| COC(=O)N1CC2(CO)C3CC=C(C(=O)Nc4ccccc4Br)C2C1C3Br (stereo not given) | > 50 µM | – | > 50 µM | > 50 µM | > 50 µM | – | > 50 µM | > 50 µM | > 50 µM | – | > 50 µM | > 50 µM | – | – | – | – | – | – | – |
| C1CC2=C(C1)[Se]C(=C1Sc3nsnc3S1)[Se]2 | > 100 µM | – | > 100 µM | > 100 µM | > 100 µM | – | > 100 µM | > 100 µM | > 100 µM | – | > 100 µM | > 100 µM | – | – | – | – | – | – | – |
| CCOC(=O)c1cn(-c2ccccc2)c(=S)n2c1nc1ccccc12 | > 100 µM | – | > 73.4 µM | > 100 µM | > 100 µM | – | > 94.8 µM | > 100 µM | > 100 µM | – | > 100 µM | > 100 µM | – | – | – | – | – | – | – |
